Data published in patent US20160264593A1 (priority 2013, published 2016).
Where two headings read alike, the source gives them in different places.

Assay: Pharmacokinetic study of 153 (and metabolite endothal) in SD rats, iv and po; plasma, liver, brain
Assay type: in vivo
Conditions: for MRT last: read-out: MRT (0-t); for half-life: read-out: T1/2 (converted); for Tmax: read-out: Tmax
Method: The blood, liver and brain tissue samples were collected at predetermined times from rats. […] Compound were diluted shortly before use in 4% sodium bicarbonate for sterile injection (this is the standard pediatric solution of NaHCO3 with a pH of about 8.5).
Compound 153 was freshly prepared by diluting the drugs shortly before use in 4% sodium bicarbonate for sterile injection (this is the standard pediatric solution of NaHCO3 with a pH of about 8.5). The final concentrations of 153 solutions were 0.25 mg/mL. The 153 solutions were administered via iv or po route at dose volume of 5 ml/kg according to the latest body weight. Compound 157 was freshly prepared by diluting the drugs shortly before use in 4% sodium bicarbonate for sterile injection (this is the standard pediatric solution of NaHCO3 with a pH of about 8.5). The final concentrations of […] solutions were 0.3 mg/mL. The 157 solutions were administered via iv or po route at dose volume of 5 ml/kg according to the latest body weight.
Twelve (12) female SD rats per group were dosed by iv with 153 or 157. The rats were fasted overnight prior to dosing, with free access to water. Foods were withheld for 2 hours post-dose. Blood, liver and brain tissue samples in two animals each group were collected at each time point, within 10% of the scheduled time for each time point. Two extra animals were used for analytic method development.
Blood (>0.3 mL) were collected via aorta abdominalis in anaesthetic animals into tubes containing heparin at 15 min, 1, 2, 6, 10 and 24 hours after iv administration. Liver and brain tissues were collected immediately after animal death. The liver and brain tissues were excised and rinsed with cold saline to avoid blood residual. Upon collection, each sample was placed on ice and the blood samples were subsequently centrifuged (4° C., 11000 rpm, 5 min) to separate plasma. The obtained plasma, liver and brain tissue samples were stored at −70° C. until LC-MS/MS analysis.
Two (2) female SD rats per group were dosed by po with 153 or 157. The rats were fasted overnight prior to dosing, with free access to water. Foods were withheld for 2 hours post-dose. Blood samples (>0.3 mL) were collected via aorta abdominalis in anaesthetic animals into tubes containing heparin at 30 min, 1, 2, 6, 10 and 24 hours after po administration.
To each sample, 20 μL IS-D (for blank samples, 20 μL acetonitrile:water (1:1) was added) and 300 μl acetonitrile was added. The sample mixture was vortexed for approximately 3 min. After centrifugation at 10000 rpm for 5 min at 4° C., 100 μL of the upper layer was transferred to a new tube and added 200 μL 0.4% formic acid in water (pH 6.0). The mixture was vortexed for approximately 3 min before injected onto the LC/MS/MS system for analysis.
On the day of the assay, the frozen liver and brain samples were thawed unassisted at room temperature. An about 200 mg weighed sample of each thawed tissue was placed into a plastic tube with water (0.6 mL) to facilitate homogenization. Tissue processing was conducted using a homogenizer for approximately 1 min, 200 μl homogenate was transferred into a fresh Eppendorf tube. To each tube, 50 μL IS-D was added and mixed. Then 600 μl acetonitrile was added and the sample mixture was vortexed for approximately 3 min. After centrifugation at 10000 rpm for 5 min at 4° C., 400 μL of the upper layer was transferred to a new tube and evaporate the supernatant to dryness at 35° C. Reconstitute the residue with 200 μL of 0.4% formic acid in water (pH6.0), and vortex for 3 min, submit for LC-MS/MS analysis.
Frozen unknown plasma samples were completely thawed at room temperature and vortexed thoroughly. With a pipette, 50 μL of plasma was transferred into a 2.0 mL Eppendorf tube. 50 μL of 0.1N HCl and 800 μL ethyl acetate were added into each sample. The sample mixture was vortexed for approximately 3 min.

[1] = female, SD, rat, in vivo, iv, 1.25 mg/kg, iv 1.25 mg/kg, Mean, read-out: 153 liver concentration
[2] = female, SD, rat, in vivo, iv, 1.25 mg/kg, iv 1.25 mg/kg, Mean, read-out: 153 plasma concentration
[3] = female, SD, rat, in vivo, iv, 1.25 mg/kg, iv 1.25 mg/kg, Rat 1, read-out: 153 brain concentration
[4] = female, SD, rat, in vivo, iv, 1.25 mg/kg, iv 1.25 mg/kg, Rat 1, read-out: 153 liver concentration
[5] = female, SD, rat, in vivo, iv, 1.25 mg/kg, iv 1.25 mg/kg, Rat 1, read-out: 153 plasma concentration
[6] = female, SD, rat, in vivo, iv, 1.25 mg/kg, iv 1.25 mg/kg, Rat 2, read-out: 153 brain concentration
[7] = female, SD, rat, in vivo, iv, 1.25 mg/kg, iv 1.25 mg/kg, Rat 2, read-out: 153 liver concentration
[8] = female, SD, rat, in vivo, iv, 1.25 mg/kg, iv 1.25 mg/kg, Rat 2, read-out: 153 plasma concentration
[9] = female, SD, rat, in vivo, po, 1.25 mg/kg, 153 in plasma, PO 1.25 mg/kg, Mean
[10] = female, SD, rat, in vivo, po, 1.25 mg/kg, 153 in plasma, PO 1.25 mg/kg, rat 1
[11] = female, SD, rat, in vivo, po, 1.25 mg/kg, 153 in plasma, PO 1.25 mg/kg, rat 2
[12] = female, SD, rat, in vivo, po, 1.25 mg/kg, PO per title, 1.25 mg/kg, Mean, read-out: 153 liver concentration
[13] = female, SD, rat, in vivo, po, 1.25 mg/kg, PO per title, 1.25 mg/kg, Rat 2, read-out: 153 liver concentration
[14] = female, Sprague-Dawley (SD), rat, in vivo, iv, 1.25 mg/kg, Brain, 1.25 mg/kg IV, Mean
[15] = female, Sprague-Dawley (SD), rat, in vivo, iv, 1.25 mg/kg, Brain, 1.25 mg/kg IV, rat 1
[16] = female, Sprague-Dawley (SD), rat, in vivo, iv, 1.25 mg/kg, Brain, 1.25 mg/kg IV, rat 2
[17] = female, Sprague-Dawley (SD), rat, in vivo, iv, 1.25 mg/kg, Liver, 1.25 mg/kg IV, Mean
[18] = female, Sprague-Dawley, rat, in vivo, po, 1.25 mg/kg, PO per title, 1.25 mg/kg, Rat 1, read-out: 153 liver concentration

`CCCOC(=O)C1C2CCC(O2)C1C(=O)N1CCN(C)CC1` (stereo not shown) [Compound 153, 3-(4-Methylpiperazine-1-carbonyl)-7-oxa-bicyclo[2,2,1]heptane-2-carboxylic acid propyl ester] showed a concentration at 1 h [1] of 126 ng/g, a concentration at 1 h [2] of 0.0547 µg/mL and a concentration at 1 h [3] of 13.9 ng/g. It also gave a concentration at 1 h [4] of 131 ng/g, a concentration at 1 h [5] of 0.058 µg/mL and a concentration at 1 h [6] of 14.3 ng/g. It also gave a concentration at 1 h [7] of 121 ng/g, a concentration at 1 h [8] of 0.0514 µg/mL and a concentration at 2 h (female, SD, rat, in vivo, iv, 1.25 mg/kg, iv 1.25 mg/kg, Mean, read-out: 153 brain concentration) of 4.4 ng/g. For the same compound, the concentration at 2 h [1] was 41.6 ng/g, the concentration at 2 h [2] was 0.0139 µg/mL and the concentration at 2 h [3] was 4.05 ng/g. For the same compound, the concentration at 2 h [4] was 42 ng/g, the concentration at 2 h [5] was 0.0148 µg/mL and the concentration at 2 h [6] was 4.75 ng/g. The concentration at 2 h [7] was 41.2 ng/g, the concentration at 2 h [8] was 0.013 µg/mL and the concentration at 6 h (female, SD, rat, in vivo, iv, 1.25 mg/kg, iv 1.25 mg/kg, 6 hr, Mean) was 0.00103 µg/mL. The concentration at 6 h (female, SD, rat, in vivo, iv, 1.25 mg/kg, iv 1.25 mg/kg, 6 hr, Rat 1) was 0.00104 µg/mL, the concentration at 6 h (female, SD, rat, in vivo, iv, 1.25 mg/kg, iv 1.25 mg/kg, 6 hr, Rat 2) was 0.00102 µg/mL and the concentration at 10 h (female, SD, rat, in vivo, iv, 1.25 mg/kg, iv 1.25 mg/kg, 10 hr, Rat 2, abnormal, not included in the calculation) was 0.00942 µg/mL. The MRT last [9] was 60.6 min, the half-life [9] was 20.6 min and the AUC(0-inf) [10] was 0.163 µg·h/mL. For the same compound, the AUC (female, SD, rat, in vivo, po, 1.25 mg/kg, 153 in plasma, PO 1.25 mg/kg, rat 1, read-out: AUC) was 0.163 µg·h/mL, the Cmax (female, SD, rat, in vivo, po, 1.25 mg/kg, 153 in plasma, PO 1.25 mg/kg, rat 1, read-out: Cmax) was 0.249 µg/mL and the MRT last [10] was 59.2 min. It also gave a half-life [10] of 19.8 min, an AUC(0-inf) [11] of 0.164 µg·h/mL and an AUC (female, SD, rat, in vivo, po, 1.25 mg/kg, 153 in plasma, PO 1.25 mg/kg, rat 2, read-out: AUC) of 0.164 µg·h/mL. The Cmax (female, SD, rat, in vivo, po, 1.25 mg/kg, 153 in plasma, PO 1.25 mg/kg, rat 2, read-out: Cmax) was 0.229 µg/mL, the MRT last [11] was 62.4 min and the half-life [11] was 21.3 min. For the same compound, the AUC (female, SD, rat, in vivo, po, 1.25 mg/kg, 153 po 1.25 mg/kg, read-out: AUC of 153 in plasma) was 0.164 µg·h/mL, the Cmax (female, SD, rat, in vivo, po, 1.25 mg/kg, 153 po 1.25 mg/kg, read-out: Cmax of 153 in plasma) was 0.239 µg/mL and the concentration at 0.25 h [12] was 762 ng/g. The concentration at 0.25 h [13] was 652 ng/g, the concentration at 1 h [12] was 126 ng/g and the concentration at 1 h (female, SD, rat, in vivo, po, 1.25 mg/kg, PO per title, 1.25 mg/kg, Rat 1, read-out: 153 liver concentration) was 131 ng/g. The concentration at 1 h [13] was 121 ng/g, the AUC(0-t) (female, SD, rat, in vivo, 153 iv 1.25 mg/kg, read-out: AUClast of 153 in plasma) was 0.295 µg·h/mL and the bioavailability (female, SD, rat, in vivo, 153 po vs iv 1.25 mg/kg, read-out: BA (bioavailability) of 153) was 55.4%. It also gave a Cmax (female, Sprague-Dawley (SD), rat, in vivo, iv, 1.25 mg/kg, Brain, 1.25 mg/kg IV, Mean, read-out: Cmax) of 42.7 ng/g, an MRT last [14] of 58.3 min and a half-life [14] of 35.8 min. The Cmax (female, Sprague-Dawley (SD), rat, in vivo, iv, 1.25 mg/kg, Brain, 1.25 mg/kg IV, rat 1, read-out: Cmax) was 45 ng/g, the MRT last [15] was 56 min and the half-life [15] was 33.7 min. It also gave a Cmax (female, Sprague-Dawley (SD), rat, in vivo, iv, 1.25 mg/kg, Brain, 1.25 mg/kg IV, rat 2, read-out: Cmax) of 40.3 ng/g, an MRT last [16] of 60.6 min and a half-life [16] of 37.7 min. The Cmax (female, Sprague-Dawley (SD), rat, in vivo, iv, 1.25 mg/kg, Liver, 1.25 mg/kg IV, Mean, read-out: Cmax) was 762 ng/g, the MRT last [17] was 47.1 min and the half-life [17] was 37.6 min. The half-life (female, Sprague-Dawley (SD), rat, in vivo, iv, 1.25 mg/kg, Liver, 1.25 mg/kg IV, rat 2) was 38.6 min, the AUC(0-inf) (female, Sprague-Dawley (SD), rat, in vivo, po, 1.25 mg/kg, 153 in plasma, PO 1.25 mg/kg, Mean) was 0.164 µg·h/mL and the AUC (female, Sprague-Dawley (SD), rat, in vivo, po, 1.25 mg/kg, 153 in plasma, PO 1.25 mg/kg, Mean, read-out: AUC) was 0.164 µg·h/mL. The Cmax (female, Sprague-Dawley (SD), rat, in vivo, po, 1.25 mg/kg, 153 in plasma, PO 1.25 mg/kg, Mean, read-out: Cmax) was 0.239 µg/mL, the Tmax (female, Sprague-Dawley (SD), rat, in vivo, 153 in plasma, PO 1.25 mg/kg, Mean) was 30 min and the Tmax (female, Sprague-Dawley (SD), rat, in vivo, Liver, 1.25 mg/kg IV, Mean) was 15 min. It also gave a concentration at 0.25 h [18] of 872 ng/g, a concentration at 2 h (female, Sprague-Dawley, rat, in vivo, po, 1.25 mg/kg, PO per title, 1.25 mg/kg, Mean, read-out: 153 liver concentration) of 41.6 ng/g and a concentration at 2 h [18] of 42 ng/g. For the same compound, the concentration at 2 h (female, Sprague-Dawley, rat, in vivo, po, 1.25 mg/kg, PO per title, 1.25 mg/kg, Rat 2, read-out: 153 liver concentration) was 41.2 ng/g, the 153 liver concentration (iv 1.25 mg/kg, 6 hr, Rat 1) was “BLQ” and the 153 liver concentration (iv 1.25 mg/kg, 6 hr, Rat 2) was “BLQ”. For the same compound, the 153 liver concentration (iv 1.25 mg/kg, 10 hr, Rat 1) was “BLQ”.
